A word on the IC50: it is the midpoint of a concentration-inhibition curve. A higher IC50 goes with lower potency.

Results on 14 compounds are retold here after patent US20250179103A1, “6-OXODECAHYDROPYRROLO[1,2-A][1,5]DIAZOCINE AND 6-OXODECAHYDRO-4H-PYRROLO[2,1-D][1,5]THIAZOCINE DERIVATIVES AS STAT3 AND STAT6 MODULATORS FOR THE TREATMENT OF CANCER AND INFLAMMATORY CONDITIONS” (Recludix Pharma, Inc., priority 2022, published 2025).

The subject of assay [1] is pY641-STAT6 in Peripheral Blood Mononuclear Cells (PBMC). The assay is described as follows: MSD-pSTAT-PBMC Assay (pSTAT6, IL-4 stimulated). The conditions noted are these: Homo sapiens, compound 3 hrs, then 1 ng/mL IL-4 for 10 min. It is filed as cell-based, Human. Summed up: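 Phospho-STAT readout used MSD electrochemiluminescence with total STAT3 or STAT6 capture in lysates of cryopreserved human PBMCs. Cells had 3 h compound exposure before a 10 min cytokine pulse: IL-6 10 ng/mL for pSTAT3, IL-4 1 ng/mL for pSTAT6. IC50 came from background-subtracted, DMSO-normalised signal, with categories A≤100 nM up to D>3 μM.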

Assay [2] relates to pY705-STAT3 in Peripheral Blood Mononuclear Cells (PBMC). Briefly: MSD-pSTAT-PBMC Assay (pSTAT3, IL-6 stimulated). It is filed as cell-based, Human. To be noted: Homo sapiens, compound 3 hrs, then 10 ng/mL IL-6 for 10 min. The text has this:
Cryopreserved Peripheral Blood Mononuclear Cells (PBMC) are from AllCells. Recombinant Human IL-4 and IL-6 are from Peprotech. Mouse monoclonal anti-STAT3 antibody, rabbit monoclonal anti-pY705-STAT3 antibody, rabbit monoclonal Anti-pY641-STAT6 antibody, and lysis buffer are from Cell Signaling Technology (CST). Mouse monoclonal anti-STAT6 antibody is from BioLegend. Assay plates, blocker, and anti-rabbit secondary antibody are from Meso Scale Discovery (MSD).
Cryopreserved PBMCs were thawed out and allowed to recover overnight in IMDM+10% heat-inactivated FBS prior to plating 50,000 (STAT3) or 25,000 (STAT6) cells per well in 96-well U-bottom tissue culture plates. Cells were treated with compound for 3 hrs, then stimulated with 10 ng/mL IL-6 (STAT3) or 1 ng/mL IL-4 (STAT6) for 10 min. Cells were then spun down and washed with ice-cold PBS prior to lysing the cell pellet with 1× lysis buffer (CST) with 1×HALT protease and phosphatase inhibitor cocktail (Thermo). Lysates were transferred to and incubated overnight at 4° C. with shaking in QuickPlex 96-well high bind assay plates (MSD) pre-coated overnight with 30 μL per well of 0.6 μg/mL mouse monoclonal anti-STAT3 antibody (STAT3) or 2 μg/mL mouse monoclonal anti-STAT6 antibody (STAT6) in 1×PBS, and pre-blocked for 1 hour with 3% Blocker-A (MSD). Captured protein in the assay plates were then washed and probed with 25 μL per well of 0.25 μg/ml rabbit monoclonal anti-pY705-STAT3 antibody (STAT3) or […] rabbit monoclonal Anti-pY641-STAT6 antibody (STAT6) in 1% Blocker-A for 1 hour at room temperature with shaking, then washed and probed with 25 ul per well of 1 ug/ml Sulfo-TAG Labeled Goat Anti-Rabbit Antibody (MSD) in 1% Blocker-A for 1 hour at room temperature with shaking. Assay plates were then washed and 150 μL of 1× Read Buffer-T (MSD) was added to each well prior to reading on an SQ120 MSD Plate Reader. Assay signal from each sample was subtracted by the signal from unstimulated control wells and normalized to DMSO control wells. IC50 values were calculated using Graph Pad Prism Dose-Response Nonlinear Regression with variable slope. For both pSTAT3 and pSTAT6 A=≤100 nM; B=>100-1000 nM; C=>1000-3000 nM; and D=>3 μM.

Turning to `CC(=O)N1CC[C@H]2CC[C@@H](C(=O)N(C)c3ccc(N4CCOCC4)cc3)N2C(=O)[C@@H](NC(=O)c2cc3cc(C(F)(F)P(=O)(OCOC(=O)C(C)(C)C)OCOC(=O)C(C)(C)C)ccc3s2)C1` [Compound 311, ((((2-(((5S, 8S,10aR)-3-acetyl-8-(methyl(4-morpholino-phenyl)carbamoyl)-6-oxodecahydro-pyrrolo[1,2-a][1,5]diazocin-5-yl)carbamoyl)benzo[b]thiophen-5-yl)difluoro-methyl)phos-phoryl)bis(oxy)) bis(methylene) bis(2,2-dimethylpro-panoate)], the values for the half-inhibitory concentration (IC50) in assay [1] and in assay [2] were 100 to 1000 nM and 1000 to 3000 nM, respectively. The like results for `CCN1CC[C@H]2CC[C@@H](C(=O)N3C[C@@H](C#N)[C@H](c4ccccc4)C3)N2C(=O)[C@@H](NC(=O)c2cc3cc(C(F)(F)P(=O)(OCOC(=O)C(C)(C)C)OCOC(=O)C(C)(C)C)ccc3s2)C1` (single isomer, unassigned) [Compound 281, ((((2-(((5S,8S, 10aR)-8-((3S,4R or 3R,4S)-3-cyano-4-phenyl-pyrrolidine-1-carbonyl)-3-ethyl-6-oxodecahydro-pyrrolo[1,2-a][1,5]diazocin-5-yl)carbamoyl)benzo[b]thiophen-5-yl)difluoro-methyl)phos-phoryl)bis(oxy)) bis(methylene) bis(2,2-dimethyl-propanoate)] were, in that order, not above 100 nM and not above 100 nM. In the case of `CC(C)(C)C(=O)SCCOP(=O)(OCCSC(=O)C(C)(C)C)C(F)(F)c1ccc2ccc(C(=O)N[C@H]3CN(CC(F)F)CC[C@H]4CC[C@@H](C(=O)N5C[C@@H](C#N)[C@H](c6ccccc6)C5)N4C3=O)cc2c1` (single isomer, unassigned) [Compound 342, S,S′-(((((7-(((5S,8S,10aR)-8-((3S,4R or 3R,4S)-3-cyano-4-phenylpyrrolidine-1-carbonyl)-3-(2,2-difluoroethyl)-6-oxodecahydropyrrolo[1,2-a][1,5]diazocin-5-yl)carbamoyl)naphthalen-2-yl)difluoromethyl)phosphoryl)bis(oxy))bis (ethane-2,1-diyl))bis(2,2-dimethylprop anethioate)], the concentration for half-maximal inhibition (IC50) in assay [1] was 100 to 1000 nM; in assay [2], more than 3000 nM. The like results for `CC(=O)N1CC[C@H]2CC[C@@H](C(=O)N(C)c3ccccc3)N2C(=O)[C@@H](NC(=O)c2ccc3ccc(C(F)(F)P(=O)(OCOC(=O)C(C)(C)C)OCOC(=O)C(C)(C)C)cc3c2)C1` [Compound 321, ((((7-(((5S,8S, 10aR)-3-acetyl-8-(methyl (phenyl)carbamoyl)-6-oxodecahydro-pyrrolo[1,2-a][1,5]diazocin-5-yl)carbamoyl)naphthalen-2-yl)difluoro-methyl)phos-phoryl)bis(oxy)) bis(methylene) bis(2,2-dimethylpro-panoate)] were, in that order, not above 100 nM and 100 to 1000 nM. `CC(C)OC(=O)OCOP(=O)(Cc1ccc2sc(C(=O)N[C@H]3CN(Cc4ccn5ccnc5c4)CC[C@H]4CC[C@@H](C(=O)N5CC(c6cccnc6)C5)N4C3=O)cc2c1)OCOC(=O)OC(C)C` [Compound 338, ((((2-(((5S,8S,10aR)-3-(imidazo[1,2-a]pyridin-7-ylmethyl)-6-oxo-8-(3-(pyridin-3-yl)azetidine-1-carbonyl)decahydropyrrolo[1,2-a][1,5]diazocin-5-yl)carbamoyl)benzo[b]thiophen-5-yl)methyl)phosphoryl)bis (oxy))bis(methylene)diisopropylbis(carbonate)] gave an IC50 in assay [2] of 100 to 1000 nM. Consider `CC(=O)N1CC[C@H]2CC[C@@H](C(=O)N3CCC[C@H]3Cc3ccccc3)N2C(=O)[C@@H](NC(=O)c2cc3cc(C(F)(F)P(=O)(OCOC(=O)C(C)(C)C)OCOC(=O)C(C)(C)C)ccc3s2)C1` [Compound 320, ((((2-(((5S,8S, 10aR)-3-acetyl-8-((S)-2-benzyl-pyrrolidine-1-carbonyl)-6-oxodecahydro-pyrrolo[1,2-a][1,5]diazocin-5-yl)carbamoyl)benzo[b]thiophen-5-yl)difluoro-methyl)phos-phoryl)bis(oxy)) bis(methylene) bis(2,2-dimethylpro-panoate)], for which the IC50 in assay [1] is not above 100 nM; in assay [2], 100 to 1000 nM. The like results for `COCCOC(=O)OCOP(=O)(OCOC(=O)OCCOC)C(F)(F)c1ccc2sc(C(=O)N[C@H]3CN(C(C)=O)CC[C@H]4CC[C@@H](C(=O)N(C)c5ccccc5)N4C3=O)cc2c1` [Compound 283, ((((2-(((5S,8S, 10aR)-3-acetyl-8-(methyl (phenyl)carbamoyl)-6-oxodecahydro-pyrrolo[1,2-a][1,5]diazocin-5-yl)carbamoyl)benzo[b]thiophen-5-yl)difluoro-methyl)phos-phoryl)bis(oxy)) bis(methylene) bis(2-methoxyethyl) bis(carbonate)] were, in that order, 1000 to 3000 nM and more than 3000 nM. Consider `CC(=O)N1CC[C@H]2CC[C@@H](C(=O)N3C[C@H](c4ccccc4)[C@@H](C#N)C3)N2C(=O)[C@@H](NC(=O)c2cc3cc(C(F)(F)P(=O)(OCOC(=O)OC(C)C)OCOC(=O)OC(C)C)ccc3s2)C1` (single isomer, unassigned) [Compound 285, ((((2-(((5S,8S, 10aR)-3-acetyl-8-((3R,4S or 3S,4R)-3-cyano-4-phenyl-pyrrolidine-1-carbonyl)-6-oxodecahydro-pyrrolo[1,2-a][1,5]diazocin-5-yl)carbamoyl)benzo[b]thiophen-5-yl)difluoro-methyl)phos-phoryl)bis(oxy)) bis(methylene) diisopropyl bis(carbonate)], for which the results for the half-inhibitory concentration (IC50) in assay [1] and in assay [2] were not above 100 nM and 100 to 1000 nM, respectively. The like results for `CC(C)(C)C(=O)OCOP(=O)(OCOC(=O)C(C)(C)C)C(F)(F)c1ccc2ccc(C(=O)N[C@H]3CN(CC(F)F)CC[C@H]4CC[C@@H](C(=O)N5C[C@@H](C#N)[C@H](c6ccccc6)C5)N4C3=O)cc2c1` (single isomer, unassigned) [Compound 346] were, in that order, not above 100 nM and 100 to 1000 nM. `CC(=O)N1CC[C@H]2CC[C@@H](C(=O)N(C)c3ccccc3)N2C(=O)[C@@H](NC(=O)c2cc3cc(C(F)(F)P(=O)(OCOC(=O)OCC(C)C)OCOC(=O)OCC(C)C)ccc3s2)C1` [Compound 284, ((((2-(((5S,8S, 10aR)-3-acetyl-8-(methyl (phenyl)carbamoyl)-6-oxodecahydro-pyrrolo[1,2-a][1,5]diazocin-5-yl)carbamoyl)benzo[b]thiophen-5-yl)difluoro-methyl)phos-phoryl)bis(oxy)) bis(methylene) diisobutyl bis(carbonate)]: the figures for the concentration for half-maximal inhibition (IC50) in assay [1] and in assay [2] were not above 100 nM and 100 to 1000 nM, respectively.

As to `CCN1CC[C@H]2CC[C@@H](C(=O)N3C[C@@H](C#N)[C@H](c4ccccc4)C3)N2C(=O)[C@@H](NC(=O)c2ccc3ccc(C(F)(F)P(=O)(OCCSC(=O)C(C)(C)C)OCCSC(=O)C(C)(C)C)cc3c2)C1` (single isomer, unassigned) [Compound 343, S,S′-(((((7-(((5S,8S,10aR)-8-((3S,4R or 3R,4S)-3-cyano-4-phenylpyrrolidine-1-carbonyl)-3-ethyl-6-oxodecahydropyrrolo[1,2-a][1,5]diazocin-5-yl)carbamoyl)naphthalen-2-yl)difluoromethyl)phosphoryl)bis(oxy))bis(ethane-2,1-diyl))bis(2,2-dimethylpropanethioate)], the half-inhibitory concentration (IC50) in assay [1] lay within 100 to 1000 nM; in assay [2] it was 1000 to 3000 nM. As for `CC(C)OC(=O)[C@H](C)NP(=O)(Cc1ccc2sc(C(=O)N[C@H]3CN(Cc4ccn5ccnc5c4)CC[C@H]4CC[C@@H](C(=O)N5CC(c6cccnc6)C5)N4C3=O)cc2c1)NCc1ccccc1` (stereo partly drawn) [Compound 333], in assay [2], the 50% inhibitory concentration (IC50) is more than 3000 nM. Compound `CCCOC(=O)[C@H](C)NP(=O)(Oc1ccccc1)C(F)c1ccc2ccc(C(=O)N[C@H]3CN(C(=O)c4noc5ccc(OC)cc45)CC[C@H]4CC[C@@H](C(=O)N5CCOCC5)N4C3=O)cc2c1` (stereo partly drawn) [Compound 428, propyl ((fluoro(7-(((5S,8S,10aR)-3-(5-methoxybenzo [d]isoxazole-3-carbonyl)-8-(morpholine-4-carbonyl)-6-oxodecahydro-pyrrolo [1,2-a][1,5]diazocin-5-yl)carbamoyl)naphthalen-2-yl)methyl) (phenoxy)phosphoryl)-L-alaninate] registered an IC50 in assay [1] of 100 to 1000 nM. In assay [1], `CCCOC(=O)[C@H](C)NP(=O)(Oc1ccccc1)C(F)c1ccc2sc(C(=O)N[C@H]3CN(CC(F)F)CC[C@H]4CC[C@@H](C(=O)N5C[C@@H](C#N)[C@H](c6ccccc6)C5)N4C3=O)cc2c1` (stereo partly drawn) [Compound 441] registered an IC50 not above 100 nM.
